Source: paper PMC2854178 (Biochemistry, 2010)

Molecular target: AFUA_6g12080 (Orf12080) module 1 C*AT (Aspergillus fumigatus, UniProt Q4WLW5)
Format: biochemical
Details: ATP, 10 mM MgCl2, pH 7.4, 25 °C, 5 μM enzyme (apo); off-pathway acyl-AMP release

AFUA_6g12080 (Orf12080) module 1 C*AT, sequence (Q4WLW5 1-885): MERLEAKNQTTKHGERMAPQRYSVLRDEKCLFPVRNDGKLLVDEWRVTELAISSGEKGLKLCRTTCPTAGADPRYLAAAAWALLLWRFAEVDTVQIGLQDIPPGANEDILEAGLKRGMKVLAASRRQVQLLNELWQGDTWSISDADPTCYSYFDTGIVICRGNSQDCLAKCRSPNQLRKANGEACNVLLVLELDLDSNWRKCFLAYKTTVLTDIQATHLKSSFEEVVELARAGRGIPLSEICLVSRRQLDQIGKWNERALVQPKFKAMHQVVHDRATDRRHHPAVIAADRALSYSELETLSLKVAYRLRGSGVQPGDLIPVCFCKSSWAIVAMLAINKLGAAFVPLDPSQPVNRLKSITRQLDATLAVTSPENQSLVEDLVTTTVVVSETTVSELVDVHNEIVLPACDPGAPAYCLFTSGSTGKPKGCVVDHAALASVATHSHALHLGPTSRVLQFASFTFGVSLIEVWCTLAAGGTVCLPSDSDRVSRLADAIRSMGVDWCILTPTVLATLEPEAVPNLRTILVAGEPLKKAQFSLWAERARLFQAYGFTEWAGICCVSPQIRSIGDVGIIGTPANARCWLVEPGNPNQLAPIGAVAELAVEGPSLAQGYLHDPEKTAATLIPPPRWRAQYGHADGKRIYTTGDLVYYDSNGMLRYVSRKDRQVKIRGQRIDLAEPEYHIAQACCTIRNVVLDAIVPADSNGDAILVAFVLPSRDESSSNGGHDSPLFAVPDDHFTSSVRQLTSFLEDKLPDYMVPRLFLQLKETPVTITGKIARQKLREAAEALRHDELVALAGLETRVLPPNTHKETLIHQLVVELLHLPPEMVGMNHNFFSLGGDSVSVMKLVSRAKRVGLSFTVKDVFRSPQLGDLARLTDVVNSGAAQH

With `Nc1ccccc1C(=O)O` [anthranilic acid, 2-aminobenzoic acid] the Km was 18 µM.
